Source: patent publication US20250011344A1 (priority 2021, published 2025)
“And” between values parts separate entries of the source, which are not always exact repeats. Equal values may be shown once. Where a name gives a salt, the structure may show the parent alone.

Experiments:
[1] = PO 2 mg/Kg, FIG. 15, time points other than the one quantified
[2] = PK of psilocin after a single intravenous administration in rats; details: IV 1 mg/kg nominal dose; for half-life: T½
[3] = psilocin in plasma, individual animal
[4] = psilocin in plasma, individual animal, 1 mg/kg

SMILES | Plasma concentrations of metabolite psilocin at other time points [1] | AUC(0-inf) ([2]; male, Sprague-Dawley, rat, plasma, iv, 1 mg/kg, AUCINF_obs, Mean of animals) [ng·h/mL] | AUC(0-t) ([2]; male, Sprague-Dawley, rat, plasma, iv, 1 mg/kg, AUClast, Mean of animals) [ng·h/mL] | Cmax ([2]; male, Sprague-Dawley, rat, plasma, iv, 1 mg/kg, Cmax, Mean of animals) [ng/mL] | half-life ([2]; male, Sprague-Dawley, rat, plasma, iv, 1 mg/kg, Mean of animals) [min] | half-life ([2]; male, Sprague-Dawley, rat, plasma, iv, 1 mg/kg, individual animal) [min] | Tlast ([2]; psilocin in plasma, Mean of animals) [h] | Tlast [2, 3] [h] | Tmax [2, 3] [min] | AUCINF_obs [2, 4] | AUClast [2, 4] | Cmax [2, 4] | T½ [2, 4]
CN(C)CCc1c[nH]c2cccc(OP(=O)(OC(C)(C)C)OC(C)(C)C)c12 [Di-tert-butyl [3-[2-(dimethylamino)ethyl]-1H-indol-4-yl] phosphate HCl salt] | below limit of quantification (BLQ) |  |  |  |  |  |  |  |  |  |  |  | 
CN(C)CCc1c[nH]c2cccc(O)c12 [Psilocin, psilocin] |  | 1580 | 1920 | 1300 | 28.7 | 24.8 | 24.00 | 24.00 | 15 | 982 ng·h/mL and 3390 ng·h/mL and 368 ng·h/mL | 1340 ng·h/mL and 3780 ng·h/mL and 646 ng·h/mL | 1110 ng/mL and 2450 ng/mL and 340 ng/mL | 21.2 min and 40.1 min
